# Measured values: patent US20230021483A1, “[…] […] METHOD AND CLASSIFICATION OF PHARMACEUTICAL COMPONENTS BY USING TRANSCRIPTOMES” (National Institutes of Biomedical Innovation, Health and …, priority 2016, published 2023)
# How the values were obtained:
# [1] = tested on: adjuvant-associated biological themes in LV, SP, LN
# Procedure, shortened: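 Enrichment score S sums −log(p) over consensus themes whose names contain a pre-selected adjuvant-associated term such as "stress" or "cytokine". Consensus requires a theme in all three mice of a group, p<0.05. Themes come from TargetMine analysis of genes with eij/ei(c)>2.0, Fisher's exact test, Holm-Bonferroni-corrected.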
# liver (LV) = assay: Whole organ transcriptome (GeneChip microarray) of liver 6 h after adjuvant administration: sDEGs, hierarchical clustering; format: in vivo, C57BL/6 mice; conditions: liver; as to adjuvant group (cluster) in LV: key: G1 (interferon signaling); G2 (metabolism of lipids and lipoproteins); G3 (response to stress); G4 (response to wounding); G5 (phosphate-containing compound metabolic process); G6 (phagosome)
# [2] = literature reports; cited from earlier work
compound,measurement,setting,value
"Cc1ccc2c(=O)c3cccc(CC(=O)O)c3oc2c1C [DMXAA, 5,6-dimethylxanthenone-4-acetic acid]",GO annotation: Cytokine-cytokine receptor interaction (Term: cytokine),"[1]; LV, ID",0
same,GO annotation: Cytokine-cytokine receptor interaction|Endocytosis (Term: cytokine),"[1]; LV, ID",15.4
same,GO annotation: I-kappaB kinase/NF-kappaB signaling (Term: NF-kappa B signaling pathway),"[1]; LV, ID",0
same,GO annotation: NF-kappa B signaling pathway (Term: NF-kappa B signaling pathway),"[1]; LV, ID",3.77
same,GO annotation: TNF signaling pathway (Term: TNF signaling pathway),"[1]; LV, ID",10.7
same,GO annotation: activation of immune response (Term: immune response),"[1]; LV, ID",5.67
same,GO annotation: activation of innate immune response (Term: innate immune response),"[1]; LV, ID",9.24
same,GO annotation: acute inflammatory response (Term: inflammatory response),"[1]; LV, ID",0
same,GO annotation: adaptive immune response (Term: adaptive immune response),"[1]; LV, ID",0
same,GO annotation: apoptotic process (Term: apoptosis),"[1]; LV, ID",0
same,GO annotation: apoptotic signaling pathway (Term: apoptosis),"[1]; LV, ID",0
same,GO annotation: cell chemotaxis (Term: chemotaxis),"[1]; LV, ID",0
same,GO annotation: cell death (Term: cell death),"[1]; LV, ID",6.04
same,GO annotation: cell migration (Term: migration),"[1]; LV, ID",0
same,GO annotation: cellular response to cytokine stimulus (Term: cytokine),"[1]; LV, ID",16.7
same,GO annotation: cellular response to interferon-alpha (Term: IFN alpha),"[1]; LV, ID",9.3
same,GO annotation: cellular response to stress (Term: stress),"[1]; LV, ID",0
same,GO annotation: chemokine production (Term: chemokine),"[1]; LV, ID",0
same,GO annotation: chemokine-mediated signaling pathway (Term: chemokine),"[1]; LV, ID",0
same,GO annotation: chemotaxis (Term: chemotaxis),"[1]; LV, ID",0
same,GO annotation: cytokine biosynthetic process (Term: cytokine),"[1]; LV, ID",0
same,GO annotation: cytokine metabolic process (Term: cytokine),"[1]; LV, ID",0
same,GO annotation: cytokine production (Term: cytokine),"[1]; LV, ID",6.98
same,GO annotation: cytokine secretion (Term: cytokine),"[1]; LV, ID",0
same,GO annotation: cytokine-mediated signaling pathway (Term: cytokine),"[1]; LV, ID",0
same,GO annotation: death (Term: cell death),"[1]; LV, ID",0
same,GO annotation: defense response (Term: defense response),"[1]; LV, ID",48.4
same,GO annotation: defense response to Gram-positive bacterium (Term: defense response),"[1]; LV, ID",0
same,GO annotation: defense response to bacterium (Term: defense response),"[1]; LV, ID",0
same,GO annotation: defense response to other organism (Term: defense response),"[1]; LV, ID",23.6
same,GO annotation: defense response to protozoan (Term: defense response),"[1]; LV, ID",3.52
same,GO annotation: defense response to virus (Term: defense response),"[1]; LV, ID",15
same,GO annotation: granulocyte chemotaxis (Term: chemotaxis),"[1]; LV, ID",0
same,GO annotation: granulocyte migration (Term: migration),"[1]; LV, ID",0
same,GO annotation: immune response (Term: immune response),"[1]; LV, ID",25.5
same,GO annotation: immune response-activating signal transduction (Term: immune response),"[1]; LV, ID",5.98
same,GO annotation: immune response-regulating signaling pathway (Term: immune response),"[1]; LV, ID",8.39
same,GO annotation: inflammatory response (Term: inflammatory response),"[1]; LV, ID",0
same,GO annotation: innate immune response (Term: innate immune response),"[1]; LV, ID",34.9
same,GO annotation: innate immune response-activating signal transduction (Term: innate immune response),"[1]; LV, ID",7.99
same,GO annotation: interferon-alpha production (Term: IFN alpha),"[1]; LV, ID",6.81
same,GO annotation: intrinsic apoptotic signaling pathway (Term: apoptosis),"[1]; LV, ID",0
same,GO annotation: leukocyte chemotaxis (Term: chemotaxis),"[1]; LV, ID",0
same,GO annotation: leukocyte migration (Term: migration),"[1]; LV, ID",0
same,GO annotation: leukocyte migration involved in inflammatory response (Term: inflammatory response),"[1]; LV, ID",0
same,GO annotation: lymphocyte chemotaxis (Term: chemotaxis),"[1]; LV, ID",0
same,GO annotation: lymphocyte migration (Term: migration),"[1]; LV, ID",0
same,GO annotation: myeloid leukocyte migration (Term: migration),"[1]; LV, ID",0
same,GO annotation: negative regulation of apoptotic process (Term: apoptosis),"[1]; LV, ID",0
same,GO annotation: negative regulation of cell death (Term: cell death),"[1]; LV, ID",0
same,GO annotation: negative regulation of cytokine production (Term: cytokine),"[1]; LV, ID",0
same,GO annotation: negative regulation of defense response (Term: defense response),"[1]; LV, ID",0
same,GO annotation: negative regulation of immune response (Term: immune response),"[1]; LV, ID",0
same,GO annotation: negative regulation of innate immune response (Term: innate immune response),"[1]; LV, ID",0
same,GO annotation: negative regulation of programmed cell death (Term: cell death),"[1]; LV, ID",0
same,GO annotation: neutrophil chemotaxis (Term: chemotaxis),"[1]; LV, ID",0
same,GO annotation: neutrophil migration (Term: migration),"[1]; LV, ID",0
same,GO annotation: positive regulation of I-kappaB kinase/NF-kappaB signaling (Term: NF-kappa B signaling pathway),"[1]; LV, ID",0
same,GO annotation: positive regulation of adaptive immune response (Term: adaptive immune response),"[1]; LV, ID",0
same,GO annotation: positive regulation of apoptotic process (Term: apoptosis),"[1]; LV, ID",0
same,GO annotation: positive regulation of cell death (Term: cell death),"[1]; LV, ID",0
same,GO annotation: positive regulation of cell migration (Term: migration),"[1]; LV, ID",0
same,GO annotation: positive regulation of chemokine production (Term: chemokine),"[1]; LV, ID",0
same,GO annotation: positive regulation of chemotaxis (Term: chemotaxis),"[1]; LV, ID",0
same,GO annotation: positive regulation of cytokine biosynthetic process (Term: cytokine),"[1]; LV, ID",0
same,GO annotation: positive regulation of cytokine production (Term: cytokine),"[1]; LV, ID",7.86
same,GO annotation: positive regulation of defense response (Term: defense response),"[1]; LV, ID",19
same,GO annotation: positive regulation of immune response (Term: immune response),"[1]; LV, ID",10.2
same,GO annotation: positive regulation of inflammatory response (Term: inflammatory response),"[1]; LV, ID",0
same,GO annotation: positive regulation of innate immune response (Term: innate immune response),"[1]; LV, ID",12.4
same,GO annotation: positive regulation of interferon-alpha production (Term: IFN alpha),"[1]; LV, ID",7.85
same,GO annotation: positive regulation of leukocyte chemotaxis (Term: chemotaxis),"[1]; LV, ID",0
same,GO annotation: positive regulation of leukocyte migration (Term: migration),"[1]; LV, ID",0
same,GO annotation: positive regulation of programmed cell death (Term: cell death),"[1]; LV, ID",0
same,GO annotation: positive regulation of response to wounding (Term: wounding),"[1]; LV, ID",0
same,GO annotation: positive regulation of tumor necrosis factor superfamily cytokine (Term: cytokine),"[1]; LV, ID",0
same,GO annotation: production of molecular mediator of immune response (Term: immune response),"[1]; LV, ID",0
same,GO annotation: programmed cell death (Term: cell death),"[1]; LV, ID",0
same,GO annotation: regulation of I-kappaB kinase/NF-kappaB signaling (Term: NF-kappa B signaling pathway),"[1]; LV, ID",0
same,GO annotation: regulation of adaptive immune response (Term: adaptive immune response),"[1]; LV, ID",0
same,GO annotation: regulation of apoptotic process (Term: apoptosis),"[1]; LV, ID",0
same,GO annotation: regulation of apoptotic signaling pathway (Term: apoptosis),"[1]; LV, ID",0
same,GO annotation: regulation of cell death (Term: cell death),"[1]; LV, ID",0
same,GO annotation: regulation of cell migration (Term: migration),"[1]; LV, ID",0
same,GO annotation: regulation of chemokine production (Term: chemokine),"[1]; LV, ID",0
same,GO annotation: regulation of chemotaxis (Term: chemotaxis),"[1]; LV, ID",0
same,GO annotation: regulation of cytokine biosynthetic process (Term: cytokine),"[1]; LV, ID",0
same,GO annotation: regulation of cytokine production (Term: cytokine),"[1]; LV, ID",8.37
same,GO annotation: regulation of defense response (Term: defense response),"[1]; LV, ID",26.8
same,GO annotation: regulation of defense response to virus (Term: defense response),"[1]; LV, ID",0
same,GO annotation: regulation of defense response to virus by host (Term: defense response),"[1]; LV, ID",0
same,GO annotation: regulation of immune response (Term: immune response),"[1]; LV, ID",12.4
same,GO annotation: regulation of inflammatory response (Term: inflammatory response),"[1]; LV, ID",0
same,GO annotation: regulation of innate immune response (Term: innate immune response),"[1]; LV, ID",19.8
same,GO annotation: regulation of interferon-alpha production (Term: IFN alpha),"[1]; LV, ID",7.3
same,GO annotation: regulation of intrinsic apoptotic signaling pathway (Term: apoptosis),"[1]; LV, ID",0
same,GO annotation: regulation of leukocyte chemotaxis (Term: chemotaxis),"[1]; LV, ID",0
same,GO annotation: regulation of leukocyte migration (Term: migration),"[1]; LV, ID",0
same,GO annotation: regulation of programmed cell death (Term: cell death),"[1]; LV, ID",0
same,GO annotation: regulation of response to stress (Term: stress),"[1]; LV, ID",21
same,GO annotation: regulation of response to wounding (Term: wounding),"[1]; LV, ID",3.49
same,GO annotation: regulation of tumor necrosis factor superfamily cytokine production (Term: cytokine),"[1]; LV, ID",0
same,GO annotation: response to cytokine (Term: cytokine),"[1]; LV, ID",26.5
same,GO annotation: response to interferon-alpha (Term: IFN alpha),"[1]; LV, ID",11.3
same,GO annotation: response to stress (Term: stress),"[1]; LV, ID",40.4
same,GO annotation: response to wounding (Term: wounding),"[1]; LV, ID",0
same,GO annotation: taxis (Term: chemotaxis),"[1]; LV, ID",0
same,GO annotation: tumor necrosis factor superfamily cytokine production (Term: cytokine),"[1]; LV, ID",0
same,IFN beta: cellular response to interferon-beta,"[1]; LV, ID",16.7
same,IFN beta: interferon-beta production,"[1]; LV, ID",0
same,IFN beta: positive regulation of interferon-beta production,"[1]; LV, ID",5.66
same,IFN beta: regulation of interferon-beta production,"[1]; LV, ID",3.09
same,IFN beta: response to interferon-beta,"[1]; LV, ID",17.9
same,IFN gamma: cellular response to interferon-gamma,"[1]; LV, ID",7.37
same,IFN gamma: interferon-gamma production,"[1]; LV, ID",0
same,IFN gamma: regulation of interferon-gamma production,"[1]; LV, ID",0
same,IFN gamma: response to interferon-gamma,"[1]; LV, ID",10.3
same,interleukin-6: interleukin-6 production,"[1]; LV, ID",0
same,interleukin-6: positive regulation of interleukin-6 production,"[1]; LV, ID",0
same,interleukin-6: regulation of interleukin-6 production,"[1]; LV, ID",0
same,interleukin-12: interleukin-12 production,"[1]; LV, ID",0
same,interleukin-12: positive regulation of interleukin-12 production,"[1]; LV, ID",0
same,interleukin-12: regulation of interleukin-12 production,"[1]; LV, ID",0
same,GO annotation: adaptive immune response based on somatic recombination of immune receptors built from immunoglobulin superfamily domains (Term: adaptive immune response),"[1]; mouse, in vivo",0
same,GO annotation: regulation of adaptive immune response based on somatic recombination of immune receptors built from immunoglobulin superfamily domains (Term: adaptive immune response),"[1]; mouse, in vivo",0
same,adjuvant group (cluster) in LV,liver (LV); hierarchical clustering,G1
same,"Number of gene probes with statistically significant changes (sDEGs), LV, Down","liver (LV); i.d. administration, fold change <0.667, p<0.01, customized PA call=1, 6 h after adjuvant",101
same,"Number of gene probes with statistically significant changes (sDEGs), LV, Up","liver (LV); i.d. administration, fold change >1.5, p<0.01, customized PA call=1, 6 h after adjuvant",162
same,Th response induced,[2],induces Th2 responses
